Measured values taken from BindingDB's records for doi:10.1021/jm500588w (Sanofi R & D, 2014).

Test: Antagonist activity at P2Y12 receptor in human platelet rich plasma assessed as inhibition of ADP-induced aggregation

Row | Structure (SMILES) | IC50 [µM]
1 | CCCC(=O)c1cnn(-c2ccc(N(C)C(=O)c3cn(CC(=O)O)c4ccc(C)cc34)cc2)c1C | > 30
2 | CCCC(=O)c1cnn(-c2ccc(NC(=O)c3cn(CC(=O)N4CCN(CCOC)CC4)c4ccc(Cl)cc34)cc2)c1C | 0.3
3 | CCCC(=O)c1cnn(-c2ccc(NC(=O)c3cn(CC(=O)N4CCN5CCN(C)C(=O)C5C4)c4ccc(Cl)cc34)cc2)c1C (configuration not stated) | 0.3
4 | CCOC(=O)c1c(C)nn(-c2ccc(C(=O)NCc3ccccc3OC)cc2)c1C | 16.8
5 | CCOC(=O)c1c(C)nn(-c2ccc(NC(=O)Nc3ccc(Cl)cc3)cc2)c1C | 4.5
6 | CCCC(=O)c1cnn(-c2ccc(NC(=O)c3c(C)n(CC(=O)O)c4ccc(C)cc34)cc2)c1C | 15
7 | CCCC(=O)c1cnn(-c2ccc(NC(=O)n3cc(CCCC(=O)O)c4ccc(C)cc43)cc2)c1C | > 30
8 | CCCC(=O)c1cnn(-c2ccc(NC(=O)c3cn(CCCC(=O)O)c4ccc(C)cc34)cc2)c1C | 20
9 | CCOC(=O)c1c(C)nn(-c2ccc(NC(=O)Nc3ccccc3OCCCC(=O)O)cc2)c1C | 13
10 | CCCC(=O)c1cnn(-c2ccc(NC(=O)c3cn(CC(=O)OC)c4ccc(C)cc34)cc2)c1C | 4.1
11 | CCCC(=O)c1cnn(-c2ccc(NC(=O)Nc3cc(C)ccc3OCCCC(=O)O)cc2)c1C | > 30
12 | CCCC(=O)c1cnn(-c2ccc(NC(=O)c3cn(CC(=O)N(C)C)c4cc(C)c(C)cc34)cc2)c1C | 0.8

Continued, values first:

Row | IC50 [µM] | Structure (SMILES)
13 | 0.4 | CCCC(=O)c1cnn(-c2ccc(NC(=O)c3cn(CC(=O)N4CCN(C)CC4)c4ccc(OC)cc34)cc2)c1C
14 | 0.5 | CCCC(=O)c1cnn(-c2ccc(NC(=O)c3cn(CC(=O)N4CCN(C)CC4)c4ccc(Cl)cc34)cc2)c1C
15 | 0.5 | CCCC(=O)c1cnn(-c2ccc(NC(=O)c3cn(CC(=O)N4CCN(C)CC4)c4cc(F)c(Cl)cc34)cc2)c1C
16 | 1.1 | CCCC(=O)c1cnn(-c2ccc(NC(=O)c3cn(CC(=O)N4CCN(C)CC4)c4cc(C)c(Br)cc34)cc2)c1C
17 | 0.7 | CCCC(=O)c1cnn(-c2ccc(NC(=O)c3cn(CC(=O)N4CCN(C)CC4)c4ccc(C(F)(F)F)cc34)cc2)c1C
18 | 0.5 | CCCC(=O)c1cnn(-c2ccc(NC(=O)c3cn(CC(=O)N4CCN(C)CC4)c4cc(C)c(Cl)cc34)cc2)c1C
19 | 0.5 | CCCC(=O)c1cnn(-c2ccc(NC(=O)c3cn(CC(=O)N4CCN(C)CC4)c4ccc(C)cc34)cc2)c1C
20 | 0.3 | CCCC(=O)c1cnn(-c2ccc(NC(=O)c3cn(CC(=O)N4CCN(Cc5cc(C)on5)CC4)c4ccc(Cl)cc34)cc2)c1C
21 | 0.3 | CCCC(=O)c1cnn(-c2ccc(NC(=O)c3cn(CC(=O)N4CCN(CCO)CC4)c4ccc(Cl)cc34)cc2)c1C
22 | 0.4 | CCCC(=O)c1cnn(-c2ccc(NC(=O)c3cn(CC(=O)N4CCN(CC(=O)N(C)C)CC4)c4ccc(Cl)cc34)cc2)c1C
23 | 4 | CCCC(=O)c1cnn(-c2ccc(NC(=O)c3cn(CCC(=O)O)c4ccc(C)cc34)cc2)c1C
24 | 1.8 | CCCC(=O)c1cnn(-c2ccc(NC(=O)c3cn(CC(=O)O)c4ccc(C)cc34)cc2)c1C
25 | > 30 | CCCC(=O)c1cnn(-c2ccc(NC(=O)c3cn(CC(=O)O)c4ccc(C)c(C)c34)cc2)c1C
26 | 0.4 | CCCC(=O)c1cnn(-c2ccc(NC(=O)c3cn(CC(=O)O)c4cc(C)c(C)cc34)cc2)c1C
27 | 0.5 | CCCC(=O)c1cnn(-c2ccc(NC(=O)c3cn(CC(=O)N4CCN(C)CC4)c4cc(C)c(C)cc34)cc2)c1C
